Measurements: publication PMC9956870, “Exploring functional and structural features of chemically related natural prenylated hydroquinone and benzoic acid from Piper crassinervium (Piperaceae) on bacterial peroxiredoxin inhibition” (PLOS ONE, 2023)

Experiments:
Prx2 (HsPrx2) = molecular target: T1, Prx2 (HsPrx2) (Homo sapiens, UniProt P32119); assay: NADPH-coupled peroxidase assay (yeast Trx system); type: biochemical
T1 construct: gene PRDX2
T1 sequence (P32119 2-198): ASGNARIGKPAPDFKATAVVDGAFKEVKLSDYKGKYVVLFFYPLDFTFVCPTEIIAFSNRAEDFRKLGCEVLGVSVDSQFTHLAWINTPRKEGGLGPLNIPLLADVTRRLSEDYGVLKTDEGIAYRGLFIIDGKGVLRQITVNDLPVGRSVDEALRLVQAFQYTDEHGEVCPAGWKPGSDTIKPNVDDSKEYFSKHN

[1] = molecular target: T2, alkyl hydroperoxide reductase C (SeAhpC) (Staphylococcus epidermidis, UniProt Q8CMQ2); assay: NADPH-coupled peroxidase assay; type: biochemical
T2 construct: gene ahpC
T2 sequence (Q8CMQ2 1-189): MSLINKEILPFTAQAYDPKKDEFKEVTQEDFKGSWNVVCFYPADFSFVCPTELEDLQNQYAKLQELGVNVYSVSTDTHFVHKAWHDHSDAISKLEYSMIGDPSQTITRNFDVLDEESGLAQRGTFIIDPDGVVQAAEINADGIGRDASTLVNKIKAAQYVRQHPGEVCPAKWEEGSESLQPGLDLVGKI

CCN1C(=O)C=CC1=O [NEM, N-ethylmaleimide]
peroxidase initial rate (Prx2 (HsPrx2)): 0.02 ± 0.01 μMs^-1 (v0; untreated 0.62 ± 0.03) | NADPH-coupled peroxidase assay [1]: As expected for the samples subjected to NEM treatment, no peroxidase activity was detected to both enzymes
